The results in this text go back to PubChem BioAssay AID330 (DTP/NCI, 2004).

This assay relates to P388 leukemia ip, CD2F1 mice, survival T/C. As to the kind of experiment: NCI In Vivo Anticancer Drug Screen. Data for tumor model P388 Leukemia (intraperitoneal) in CD2F1 (CDF1) mice. The conditions noted are these: endpoint: median survival time, higher = longer survival. The method in brief: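 Mice carrying the transplanted tumor received test compound or vehicle. Survival was recorded in each group, and the value is the treated-group measurement divided by that of the vehicle-treated control group.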

Setting [1] is: dose: 60.0 mg/kg/injection, schedule: Q01DX005 (ip), vehicle: Klucel (hydroxypropylcellulose) (HPC).
Where [2] appears, read: dose: 120.0 mg/kg/injection, schedule: Q01DX005 (ip), vehicle: Klucel (hydroxypropylcellulose) (HPC).
The mark [3] stands for this setting: dose: 12.5 mg/kg/injection, schedule: Q01DX005 (ip), vehicle: saline with Tween-80.
Where [4] appears, read: dose: 50.0 mg/kg/injection, schedule: Q01DX005 (ip), vehicle: saline with Tween-80.
Where [5] appears, read: dose: 200.0 mg/kg/injection, schedule: Q01DX005 (ip), vehicle: saline with Tween-80.
The mark [6] stands for this setting: dose: 100.0 mg/kg/injection, schedule: Q04DX003 (ip), vehicle: saline with Tween-80.
The mark [7] stands for this setting: dose: 200.0 mg/kg/injection, schedule: Q04DX003 (ip), vehicle: saline with Tween-80.
Setting [8] is: dose: 100.0 mg/kg/injection, schedule: Q01DX005 (ip), vehicle: saline with Tween-80.
Where [9] appears, read: dose: 100.0 mg/kg/injection, schedule: Q04DX002 (ip), vehicle: Klucel (hydroxypropylcellulose) (HPC).
Where [10] appears, read: dose: 200.0 mg/kg/injection, schedule: Q04DX002 (ip), vehicle: Klucel (hydroxypropylcellulose) (HPC).
The mark [11] stands for this setting: dose: 400.0 mg/kg/injection, schedule: Q04DX002 (ip), vehicle: Klucel (hydroxypropylcellulose) (HPC).
Where [12] appears, read: dose: 50.0 mg/kg/injection, schedule: Q01DX009 (ip), vehicle: saline.
The mark [13] stands for this setting: dose: 100.0 mg/kg/injection, schedule: Q01DX009 (ip), vehicle: saline.
The mark [14] stands for this setting: dose: 200.0 mg/kg/injection, schedule: Q01DX009 (ip), vehicle: saline.
[15] abbreviates: dose: 12.5 mg/kg/injection, schedule: Q01DX009 (ip), vehicle: distilled water + Tween-80.
[16] abbreviates: dose: 25.0 mg/kg/injection, schedule: Q01DX009 (ip), vehicle: distilled water + Tween-80.
[17] abbreviates: dose: 50.0 mg/kg/injection, schedule: Q01DX009 (ip), vehicle: distilled water + Tween-80.
Setting [18] is: dose: 100.0 mg/kg/injection, schedule: Q01DX009 (ip), vehicle: distilled water + Tween-80.
The mark [19] stands for this setting: dose: 200.0 mg/kg/injection, schedule: Q01DX009 (ip), vehicle: distilled water + Tween-80.

Values joined by “and” are separate entries in the source; they are usually repeats but may differ in a detail not shown here. Equal values may be shown once. Inconclusive results and toxic doses are left out.

As for `O=C(Oc1ccc(=O)[nH]n1)c1ccccc1`, the T/C by setting is: under setting [1], 102 % of control; under setting [2], 115 % of control; (dose: 240.0 mg/kg/injection, schedule: Q01DX005 (ip), vehicle: Klucel (hydroxypropylcellulose) (HPC)) 111 % of control.
Take `COc1ccc2c(c1OC)CN1CCc3cc4c(cc3C1C2C)OCO4` (stereo not drawn): the T/C is 91 % of control (dose: 50.0 mg/kg/injection, schedule: Q04DX003 (ip), vehicle: distilled water + Tween-80); 96 % of control (dose: 100.0 mg/kg/injection, schedule: Q04DX003 (ip), vehicle: distilled water + Tween-80); 91 % of control (dose: 200.0 mg/kg/injection, schedule: Q04DX003 (ip), vehicle: distilled water + Tween-80); 89 % of control (dose: 400.0 mg/kg/injection, schedule: Q04DX003 (ip), vehicle: distilled water + Tween-80).
Turning to `O=Cc1cc(C=O)c2ccc(=O)[nH]c2n1`, the T/C reads like this: under setting [1], 109 % of control; under setting [2], 114 % of control.
Take `CCN(CCNc1ccc(C)c2sc3cc(Cl)ccc3c(=O)c12)CC(C)(C)O`: the T/C under setting [3] is 95 % of control; the T/C (dose: 25.0 mg/kg/injection, schedule: Q01DX005 (ip), vehicle: saline with Tween-80) is 92 % of control; the T/C under setting [4] is 88 % of control and 97 % of control; the T/C under setting [5] was 95 % of control.
Turning to `N#C/C(=C\c1cccc2ccccc12)c1ccc(Cl)cc1`, the T/C by setting is: (dose: 50.0 mg/kg/injection, schedule: Q04DX003 (ip), vehicle: saline with Tween-80) 94 % of control; under setting [6], 97 % of control; under setting [7], 103 % of control; (dose: 400.0 mg/kg/injection, schedule: Q04DX003 (ip), vehicle: saline with Tween-80) 97 % of control.
On to `Ic1ccccc1C[N+]12CN3CN(CN(C3)C1)C2`, for which the T/C reads like this: under setting [6], 120 % of control; under setting [7], 115 % of control.
`ON(C(=S)c1ccccc1)c1ccccc1`: the T/C is 105 % of control under setting [4], 102 % of control under setting [8] and 102 % of control under setting [5].
Take `C=C1C(C(=O)OCC)=NNc2c(C(N)=O)ncn21`: the T/C by setting is: under setting [9], 96 % of control; under setting [10], 101 % of control; under setting [11], 104 % of control.
On to `Cn1c(=O)[nH]c2c(c1=O)CCCN2`, for which the T/C under setting [9] was 104 % of control, the T/C under setting [10] was 98 % of control and the T/C under setting [11] was 98 % of control.
As for `CN1CNC(=S)NC1`, the T/C is 105 % of control under setting [12], 102 % of control under setting [13] and 101 % of control under setting [14].
In the case of `COc1ccc(C2(O)CC3CCC(C2)N3C)cc1` (stereo not drawn), the T/C is 93 % of control under setting [4], 100 % of control under setting [8] and 97 % of control under setting [5].
Regarding `COc1ccc(S(N)(=O)=O)cc1C(=O)NCCN1CCN(c2cccc(C(F)(F)F)c2)CC1`, the T/C (dose: 50.0 mg/kg/injection, schedule: Q01DX005 (ip), vehicle: Klucel (hydroxypropylcellulose) (HPC)) is 99 % of control and the T/C (dose: 100.0 mg/kg/injection, schedule: Q01DX005 (ip), vehicle: Klucel (hydroxypropylcellulose) (HPC)) is 95 % of control.
For the compound `CCOC([O-])=N/C(C)=N/[n+]1ccccc1C`, the T/C is, setting by setting: under setting [12], 107 % of control; under setting [13], 104 % of control; under setting [14], 107 % of control.
`C/C(=N/NC(=S)N1CCCCCC1)c1ncccn1`: the T/C is 104 % of control (dose: 6.25 mg/kg/injection, schedule: Q01DX005 (ip), vehicle: saline with Tween-80) and 115 % of control under setting [3].
`NCC[Se]CC(N)C(=O)O` (stereo not drawn): the T/C is 101 % of control (dose: 6.25 mg/kg/injection, schedule: Q01DX009 (ip), vehicle: saline); 100 % of control (dose: 12.5 mg/kg/injection, schedule: Q01DX009 (ip), vehicle: saline); 101 % of control (dose: 25.0 mg/kg/injection, schedule: Q01DX009 (ip), vehicle: saline).
Turning to `COC(=O)c1ccc(Cl)cc1OC`, the T/C is 101 % of control under setting [15]; 99 % of control under setting [16]; 99 % of control under setting [17]; 101 % of control under setting [18]; 101 % of control under setting [19].
In the case of `COC(=O)[C@@]12OC[C@]34C([C@@H](O)C1O)[C@@]1(C)CC(=O)C(O)=C(C)C1C[C@H]3OC(=O)[C@H](OC(=O)c1ccccc1Cl)[C@H]42` (stereo partly drawn), the T/C is, setting by setting: (dose: 0.25 mg/kg/injection, schedule: Q01DX005 (ip), vehicle: DMSO) 110 % of control; (dose: 0.5 mg/kg/injection, schedule: Q01DX005 (ip), vehicle: DMSO) 110 % of control; (dose: 1.0 mg/kg/injection, schedule: Q01DX005 (ip), vehicle: DMSO) 105 % of control and 97 % of control; (dose: 2.0 mg/kg/injection, schedule: Q01DX005 (ip), vehicle: DMSO) 107 % of control and 112 % of control; (dose: 4.0 mg/kg/injection, schedule: Q01DX005 (ip), vehicle: DMSO) 109 % of control; (dose: 8.0 mg/kg/injection, schedule: Q01DX005 (ip), vehicle: DMSO) 101 % of control and 107 % of control. Moreover, the T/C is, setting by setting: (dose: 16.0 mg/kg/injection, schedule: Q01DX005 (ip), vehicle: DMSO) 108 % of control; (dose: 32.0 mg/kg/injection, schedule: Q01DX005 (ip), vehicle: DMSO) 107 % of control.
Turning to `CCOC(=O)C(Cc1ccc(N(CCCl)CCCl)cc1)NC(=O)C(N)CCC(=O)O` (stereo not drawn), the T/C runs as follows: (dose: 5.0 mg/kg/injection, schedule: Q04DX003 (ip), vehicle: water) 166 % of control; (dose: 6.25 mg/kg/injection, schedule: Q01DX009 (ip), vehicle: Klucel (hydroxypropylcellulose) (HPC)) 169 % of control; (dose: 10.0 mg/kg/injection, schedule: Q04DX003 (ip), vehicle: water) 161 % of control and 196 % of control; (dose: 12.5 mg/kg/injection, schedule: Q01DX009 (ip), vehicle: Klucel (hydroxypropylcellulose) (HPC)) 202 % of control and 247 % of control; (dose: 20.0 mg/kg/injection, schedule: Q04DX003 (ip), vehicle: water) 233 % of control and 321 % of control; (dose: 25.0 mg/kg/injection, schedule: Q01DX009 (ip), vehicle: Klucel (hydroxypropylcellulose) (HPC)) 196 % of control. Besides, the T/C reads like this: (dose: 40.0 mg/kg/injection, schedule: Q04DX003 (ip), vehicle: water) 122 % of control and 348 % of control; (dose: 50.0 mg/kg/injection, schedule: Q01DX009 (ip), vehicle: Klucel (hydroxypropylcellulose) (HPC)) 92 % of control.
Take `Cc1cc(OC(=O)Nc2c(Cl)cccc2Cl)c(Cl)c(C)c1Cl`: the T/C is 112 % of control (dose: 50.0 mg/kg/injection, schedule: Q01DX009 (ip), vehicle: saline with Tween-80); 109 % of control (dose: 100.0 mg/kg/injection, schedule: Q01DX009 (ip), vehicle: saline with Tween-80); 105 % of control (dose: 200.0 mg/kg/injection, schedule: Q01DX009 (ip), vehicle: saline with Tween-80).
Regarding `NC(=S)c1ccc(C=Nc2ccc(C(N)=S)cc2)cc1`, the T/C (dose: 100.0 mg/kg/injection, schedule: Q01DX001 (ip), vehicle: Klucel (hydroxypropylcellulose) (HPC)) was 87 % of control; the T/C (dose: 200.0 mg/kg/injection, schedule: Q01DX001 (ip), vehicle: Klucel (hydroxypropylcellulose) (HPC)) was 91 % of control; the T/C (dose: 400.0 mg/kg/injection, schedule: Q01DX001 (ip), vehicle: Klucel (hydroxypropylcellulose) (HPC)) was 88 % of control.
Consider `CNC(=O)OCc1nn(-c2ccc(Cl)c(Cl)c2)c(C)c1COC(=O)NC`, for which the T/C runs as follows: under setting [15], 87 % of control and 93 % of control; under setting [16], 86 % of control and 89 % of control; under setting [17], 90 % of control; under setting [18], 88 % of control; under setting [19], 86 % of control and 87 % of control.
For `c1ccc2c(c1)ccc1[nH]c3ccc4ccccc4c3c12`, the T/C is 100 % of control and 109 % of control and 111 % of control (dose: 1.56 mg/kg/injection, schedule: Q01DX005 (ip), vehicle: Klucel (hydroxypropylcellulose) (HPC)); 107 % of control and 116 % of control and 117 % of control (dose: 3.12 mg/kg/injection, schedule: Q01DX005 (ip), vehicle: Klucel (hydroxypropylcellulose) (HPC)).
